Source: ChEMBL document CHEMBL4715878 (J Med Chem, 2020)

How the values were obtained:
[1] = target: Receptor tyrosine-protein kinase erbB-4 (Homo sapiens, UniProt Q15303); test: Effect on human recombinant N-terminal GST-tagged HER4 (682 to 993) expressed in baculovirus infected Sf9 insect cells in presence of substrate and [gamma-32ATP] at 10 uM incubated for 30 mins by scintillation counting based radiometry assay relative to control; details: 0.5 h, read-out: Activity
[2] = target: Epidermal growth factor receptor (Homo sapiens, UniProt P00533); details: 0.5 h
Sequence of Epidermal growth factor receptor (P00533 whole entry): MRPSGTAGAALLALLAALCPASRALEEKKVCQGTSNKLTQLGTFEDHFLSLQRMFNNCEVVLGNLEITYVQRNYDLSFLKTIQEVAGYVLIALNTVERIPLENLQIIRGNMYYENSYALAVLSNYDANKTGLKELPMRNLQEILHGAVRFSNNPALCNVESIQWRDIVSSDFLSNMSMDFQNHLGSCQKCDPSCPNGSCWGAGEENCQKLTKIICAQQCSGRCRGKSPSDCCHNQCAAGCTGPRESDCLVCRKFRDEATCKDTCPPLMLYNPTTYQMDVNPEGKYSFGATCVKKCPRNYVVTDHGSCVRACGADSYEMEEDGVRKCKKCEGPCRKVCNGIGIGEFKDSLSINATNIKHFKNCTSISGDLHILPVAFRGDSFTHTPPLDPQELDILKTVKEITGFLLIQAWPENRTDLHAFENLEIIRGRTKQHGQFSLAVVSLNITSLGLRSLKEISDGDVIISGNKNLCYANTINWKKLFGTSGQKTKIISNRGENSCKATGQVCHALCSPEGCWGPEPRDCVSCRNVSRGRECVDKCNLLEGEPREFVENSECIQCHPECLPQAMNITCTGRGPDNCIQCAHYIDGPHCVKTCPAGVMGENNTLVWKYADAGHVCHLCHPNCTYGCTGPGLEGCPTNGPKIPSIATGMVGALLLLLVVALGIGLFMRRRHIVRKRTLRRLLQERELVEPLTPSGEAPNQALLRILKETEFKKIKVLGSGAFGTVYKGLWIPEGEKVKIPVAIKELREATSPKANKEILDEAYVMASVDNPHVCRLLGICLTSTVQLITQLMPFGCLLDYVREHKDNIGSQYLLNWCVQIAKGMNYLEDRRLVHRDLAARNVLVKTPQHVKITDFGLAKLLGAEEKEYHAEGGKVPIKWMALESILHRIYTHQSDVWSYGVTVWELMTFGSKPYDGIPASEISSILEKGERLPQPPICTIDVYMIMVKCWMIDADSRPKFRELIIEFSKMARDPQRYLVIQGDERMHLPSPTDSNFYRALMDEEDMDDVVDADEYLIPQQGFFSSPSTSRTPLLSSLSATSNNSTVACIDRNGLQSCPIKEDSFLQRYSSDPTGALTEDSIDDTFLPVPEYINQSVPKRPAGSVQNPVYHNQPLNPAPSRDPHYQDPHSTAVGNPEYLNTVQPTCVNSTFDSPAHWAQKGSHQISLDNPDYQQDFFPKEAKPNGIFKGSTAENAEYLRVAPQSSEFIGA
Description: Effect on human EGFR in presence of substrate and [gamma-32ATP] at 10 uM incubated for 30 mins by scintillation counting based radiometry assay relative to control

AU565 = test: Antiproliferative activity against human AU565 cells assessed as reduction in cell viability incubated for 72 hrs by WST8 assay; type: functional, cell-based; details: AU565, 72 h
[3] = target: T1, Receptor tyrosine-protein kinase erbB-2 (Homo sapiens, UniProt P04626); details: Sf9, human, 0.5 h
T1 sequence (P04626 whole entry): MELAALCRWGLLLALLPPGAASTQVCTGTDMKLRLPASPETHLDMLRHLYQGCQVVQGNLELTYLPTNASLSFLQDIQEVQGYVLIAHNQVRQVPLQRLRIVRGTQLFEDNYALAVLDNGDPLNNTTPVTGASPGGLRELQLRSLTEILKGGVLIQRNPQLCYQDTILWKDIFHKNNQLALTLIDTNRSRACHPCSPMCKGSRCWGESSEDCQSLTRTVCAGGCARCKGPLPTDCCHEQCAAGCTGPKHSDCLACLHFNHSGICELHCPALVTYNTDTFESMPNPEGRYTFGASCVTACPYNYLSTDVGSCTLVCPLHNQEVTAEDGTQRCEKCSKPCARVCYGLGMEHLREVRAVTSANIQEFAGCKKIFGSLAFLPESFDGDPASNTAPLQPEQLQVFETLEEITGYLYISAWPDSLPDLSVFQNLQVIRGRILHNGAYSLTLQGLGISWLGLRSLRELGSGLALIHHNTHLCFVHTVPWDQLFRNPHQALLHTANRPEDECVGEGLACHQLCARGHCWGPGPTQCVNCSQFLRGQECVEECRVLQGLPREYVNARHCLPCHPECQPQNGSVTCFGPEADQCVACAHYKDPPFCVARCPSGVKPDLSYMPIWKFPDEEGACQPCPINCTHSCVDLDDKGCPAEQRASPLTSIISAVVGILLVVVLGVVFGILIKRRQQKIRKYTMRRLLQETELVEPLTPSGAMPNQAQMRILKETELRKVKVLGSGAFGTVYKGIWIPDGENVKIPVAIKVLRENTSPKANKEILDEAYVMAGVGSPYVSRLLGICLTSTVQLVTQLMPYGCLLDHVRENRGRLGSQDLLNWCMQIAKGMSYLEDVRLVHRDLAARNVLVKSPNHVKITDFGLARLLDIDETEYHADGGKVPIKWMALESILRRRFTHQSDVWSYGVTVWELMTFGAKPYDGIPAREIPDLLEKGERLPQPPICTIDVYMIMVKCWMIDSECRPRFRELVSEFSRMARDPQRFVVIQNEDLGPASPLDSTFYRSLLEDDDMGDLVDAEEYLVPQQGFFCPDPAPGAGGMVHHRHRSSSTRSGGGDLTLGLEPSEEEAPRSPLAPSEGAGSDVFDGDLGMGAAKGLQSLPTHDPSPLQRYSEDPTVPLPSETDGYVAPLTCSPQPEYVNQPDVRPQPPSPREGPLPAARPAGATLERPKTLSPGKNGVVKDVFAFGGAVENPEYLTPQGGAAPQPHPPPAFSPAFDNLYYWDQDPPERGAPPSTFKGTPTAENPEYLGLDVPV

MDA-MB-231 = test: Antiproliferative activity against human MDA-MB-231 cells assessed as reduction in cell viability incubated for 72 hrs by WST8 assay; type: functional, cell-based; details: MDA-MB-231, 72 h
BT-474 = test: Antiproliferative activity against human BT474 cells assessed as reduction in cell viability incubated for 72 hrs by WST8 assay; type: functional, cell-based; details: BT-474, 72 h
MCF7 [4] = test: Antiproliferative activity against human MCF7 cells assessed as reduction in cell viability incubated for 72 hrs by WST8 assay; type: functional, cell-based; details: MCF7, 72 h
[5] = target: Platelet-derived growth factor receptor alpha (Homo sapiens, UniProt P16234); test: Effect on human recombinant N-terminal GST-tagged PDGFRalpha (550 to end residues) expressed in baculovirus infected Sf9 insect cells in presence of substrate and [gamma-32ATP] at 10 uM incubated for 30 mins by scintillation counting based radiometry assay relative to control; details: 0.5 h, read-out: Activity
Sequence of Platelet-derived growth factor receptor alpha (P16234 whole entry): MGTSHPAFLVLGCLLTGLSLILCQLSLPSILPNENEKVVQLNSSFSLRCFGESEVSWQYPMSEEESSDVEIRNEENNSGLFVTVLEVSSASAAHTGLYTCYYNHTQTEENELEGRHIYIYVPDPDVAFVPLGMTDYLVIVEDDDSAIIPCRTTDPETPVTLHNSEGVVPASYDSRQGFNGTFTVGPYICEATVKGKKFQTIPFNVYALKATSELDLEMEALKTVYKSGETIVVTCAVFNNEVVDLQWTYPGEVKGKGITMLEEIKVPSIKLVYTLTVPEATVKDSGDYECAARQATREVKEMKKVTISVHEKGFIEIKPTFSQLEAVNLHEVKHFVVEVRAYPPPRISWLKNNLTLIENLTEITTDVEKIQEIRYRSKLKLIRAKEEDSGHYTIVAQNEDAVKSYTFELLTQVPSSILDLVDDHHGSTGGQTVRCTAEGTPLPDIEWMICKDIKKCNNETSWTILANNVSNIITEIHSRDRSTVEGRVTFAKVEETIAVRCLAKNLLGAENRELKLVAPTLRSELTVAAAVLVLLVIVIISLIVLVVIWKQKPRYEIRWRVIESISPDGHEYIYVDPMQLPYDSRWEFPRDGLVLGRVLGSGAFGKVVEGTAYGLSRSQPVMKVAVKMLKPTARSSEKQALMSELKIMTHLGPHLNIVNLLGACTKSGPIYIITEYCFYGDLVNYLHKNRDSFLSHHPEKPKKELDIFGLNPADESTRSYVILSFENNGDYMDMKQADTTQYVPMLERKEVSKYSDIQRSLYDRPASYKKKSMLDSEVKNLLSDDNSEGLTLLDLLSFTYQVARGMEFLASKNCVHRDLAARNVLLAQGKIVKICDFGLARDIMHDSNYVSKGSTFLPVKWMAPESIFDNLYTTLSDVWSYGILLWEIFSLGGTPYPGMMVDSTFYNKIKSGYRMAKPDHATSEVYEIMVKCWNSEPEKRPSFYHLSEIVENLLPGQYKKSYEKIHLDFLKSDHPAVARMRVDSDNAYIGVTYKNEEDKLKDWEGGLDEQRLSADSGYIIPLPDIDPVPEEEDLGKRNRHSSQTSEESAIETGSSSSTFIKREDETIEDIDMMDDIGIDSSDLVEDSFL

[6] = Antiproliferative activity against human BC assessed as lethality at 10 uM after 48 hrs by SRB assay relative to control; type: functional
[7] = system: Panel NCI-60 (60 carcinoma cell lines); test: Antiproliferative activity against human NCI60 cells assessed as lethality at 10 uM after 48 hrs by SRB assay relative to control; type: functional
MCF7 [8] = test: Potency index, ratio of lapatinib IC50 to test compound IC50 for antiproliferative activity against human MCF7 cells; type: functional
[9] = Antiproliferative activity against human BC assessed as cell growth inhibition at 10 uM after 48 hrs by SRB assay relative to control; type: functional; details: read-out: GI
[10] = system: Panel NCI-60 (60 carcinoma cell lines); test: Antiproliferative activity against human NCI60 cells assessed as mean cell growth at 10 uM after 48 hrs by SRB assay relative to control; type: functional
MCF7 [11] = test: Antiproliferative activity against human MCF7 cells assessed as lethality at 10 uM after 48 hrs by SRB assay relative to control; type: functional
[12] = Antiproliferative activity against human MDA-MB-231 cells assessed as lethality at 10 uM after 48 hrs by SRB assay relative to control; type: functional, MDA-MB-23
MDA-MB-468 [13] = test: Antiproliferative activity against human MDA-MB-468 cells assessed as lethality at 10 uM after 48 hrs by SRB assay relative to control; type: functional
MDA-MB-468 [14] = test: Antiproliferative activity against human MDA-MB-468 cells assessed as cell growth inhibition at 10 uM after 48 hrs by SRB assay relative to control; type: functional; details: read-out: GI
[15] = target: T1, Receptor tyrosine-protein kinase erbB-2; test: Inhibition of HER2 (unknown origin) in presence of substrate incubated for 30 mins by ADP-Glo assay
[16] = target: T1, Receptor tyrosine-protein kinase erbB-2; test: Inhibition of wild-type HER2 (unknown origin) at 0.5 nM in presence of substrate incubated for 30 mins by ADP-Glo assay relative to control
MDA-MB-468 [17] = test: Antiproliferative activity against human MDA-MB-468 cells assessed as cell growth inhibition after 48 hrs by SRB assay; type: functional

Sequence of Receptor tyrosine-protein kinase erbB-4 (Q15303 whole entry): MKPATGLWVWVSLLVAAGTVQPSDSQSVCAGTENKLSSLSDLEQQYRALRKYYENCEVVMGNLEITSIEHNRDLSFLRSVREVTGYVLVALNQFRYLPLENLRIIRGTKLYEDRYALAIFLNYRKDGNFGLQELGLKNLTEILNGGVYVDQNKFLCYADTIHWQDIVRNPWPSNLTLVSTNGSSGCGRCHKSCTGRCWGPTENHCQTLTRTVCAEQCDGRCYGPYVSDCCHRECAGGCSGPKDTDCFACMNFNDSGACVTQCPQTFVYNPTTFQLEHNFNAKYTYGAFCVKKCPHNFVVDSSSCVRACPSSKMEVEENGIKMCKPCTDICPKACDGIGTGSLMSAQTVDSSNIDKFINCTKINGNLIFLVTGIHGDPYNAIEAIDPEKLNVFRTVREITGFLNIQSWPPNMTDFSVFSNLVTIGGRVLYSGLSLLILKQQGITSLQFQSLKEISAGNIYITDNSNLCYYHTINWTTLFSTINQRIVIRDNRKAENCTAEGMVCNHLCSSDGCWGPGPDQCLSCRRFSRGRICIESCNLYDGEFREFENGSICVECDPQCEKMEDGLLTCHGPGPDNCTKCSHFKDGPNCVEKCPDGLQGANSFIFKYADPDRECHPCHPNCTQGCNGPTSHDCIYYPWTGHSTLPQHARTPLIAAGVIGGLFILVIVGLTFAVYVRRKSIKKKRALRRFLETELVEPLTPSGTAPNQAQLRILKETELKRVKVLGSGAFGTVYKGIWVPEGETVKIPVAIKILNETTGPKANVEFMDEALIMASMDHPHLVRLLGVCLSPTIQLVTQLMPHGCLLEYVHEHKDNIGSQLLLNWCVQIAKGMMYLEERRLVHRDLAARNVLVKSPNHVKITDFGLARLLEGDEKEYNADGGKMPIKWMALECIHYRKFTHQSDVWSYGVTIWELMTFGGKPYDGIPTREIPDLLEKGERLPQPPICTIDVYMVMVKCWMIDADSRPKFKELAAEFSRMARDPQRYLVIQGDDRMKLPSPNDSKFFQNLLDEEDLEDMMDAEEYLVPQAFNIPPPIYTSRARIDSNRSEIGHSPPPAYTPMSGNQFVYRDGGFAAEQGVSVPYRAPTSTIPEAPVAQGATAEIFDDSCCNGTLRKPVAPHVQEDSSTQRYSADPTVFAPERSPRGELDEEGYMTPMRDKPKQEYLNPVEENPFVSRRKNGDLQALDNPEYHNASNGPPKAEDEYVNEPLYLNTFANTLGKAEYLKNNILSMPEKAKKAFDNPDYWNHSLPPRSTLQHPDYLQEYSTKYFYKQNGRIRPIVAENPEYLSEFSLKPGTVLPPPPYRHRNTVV

| Structure (SMILES) | activity at 10 µM [1] [%] | activity at 10 µM [2] [%] | IC50 (AU565) [nM] | activity at 10 µM [3] [%] | IC50 (MDA-MB-231) [nM] | IC50 (BT-474) [nM] | IC50 (MCF7 [4]) [nM] | activity at 10 µM [5] [%] | Activity [6] | Activity [7] [%] | Ratio IC50 (MCF7 [8]) | inhibition of growth at 10 µM [9] [%] | Activity [10] [%] | Activity (MCF7 [11]) [%] | Activity [12] [%] | Activity (MDA-MB-468 [13]) [%] | inhibition of growth at 10 µM (MDA-MB-468 [14]) [%] | IC50 [15] [nM] | inhibition [16] [%] | GI50 (MDA-MB-468 [17]) [nM] |
| --- | --- | --- | --- | --- | --- | --- | --- | --- | --- | --- | --- | --- | --- | --- | --- | --- | --- | --- | --- | --- |
| O=C(CN1CCOCC1)Nc1ccc2ncnc(Nc3ccc(Oc4cccc(F)c4)c(Cl)c3)c2c1 | -97 | -67 | 545 | -92 | 30200 | 373 | 18100 | 18 | – | – | – | – | – | – | – | – | – | – | – | – |
| CN1CCN(CCCOc2ccc3ncnc(Nc4ccc(Oc5cccc(C(F)(F)F)c5)c(Cl)c4)c3c2)CC1 | -99 | -78 | 447 | -92 | 1060 | 200 | 1680 | 115 | <=78.7% | 1.3 | <=20 | ≤ 78.7 | 11.85 | 18 | 18 | 18 | 18.8 | – | – | – |
| O=C(CN1CCOCC1)Nc1ccc2ncnc(Nc3ccc(OCc4cccc(F)c4)c(Cl)c3)c2c1 | -97 | -81 | 130 | -92 | 11600 | 117 | 7970 | 55 | – | – | – | – | – | – | – | – | – | – | – | – |
| O=C(CNCCO)Nc1ccc2ncnc(Nc3ccc(OCc4cccc(F)c4)c(Cl)c3)c2c1 | -98 | -78 | 220 | -93 | 8780 | 240 | 8620 | 54 | – | – | – | – | – | – | – | – | – | 10.4 | 3 | – |
| OCCNCCCOc1ccc2ncnc(Nc3ccc(Oc4cccc(C(F)(F)F)c4)c(Cl)c3)c2c1 | – | – | 456 | – | 1950 | 262 | 1510 | – | <=78.7% | 1.3 | <=20 | ≤ 78.7 | 11.85 | 18 | 18 | 18 | 18.8 | – | – | 600 |
